Consider one molecule from ChEMBL document CHEMBL1649448, “Atorvastatin is a promising partner for antimalarial drugs in treatment of Plasmodium falciparum malaria” (Antimicrob Agents Chemother, 2009).

Format in all cases: functional, organism-based
The subject of assay [1] is Plasmodium falciparum. Nature of the assay: Antimalarial activity against Plasmodium falciparum D6 assessed as incorporation of [3H]hypoxanthine after 48 hrs by scintillation counter.
The test system of assay [2] is Plasmodium falciparum. Nature of the assay: Antimalarial activity against Plasmodium falciparum PA assessed as incorporation of [3H]hypoxanthine after 48 hrs by scintillation counter.
Assay [3] has as its system Plasmodium falciparum. Nature of the assay: Antimalarial activity against Plasmodium falciparum 106/1 assessed as incorporation of [3H]hypoxanthine after 48 hrs by scintillation counter.
In assay [4] the test system is Plasmodium falciparum. Nature of the assay: Antimalarial activity against Plasmodium falciparum IMT K2 assessed as incorporation of [3H]hypoxanthine after 48 hrs by scintillation counter.
Assay [5] deals with Plasmodium falciparum. The assay can be described thus: Antimalarial activity against Plasmodium falciparum IMT 31 harboring Ppcrt I371R mutant gene assessed as incorporation of [3H]hypoxanthine after 48 hrs by scintillation counter.
The test system of assay [6] is Plasmodium falciparum. Nature of the assay: Antimalarial activity against Plasmodium falciparum IMT 9881 harboring Ppcrt I371R mutant gene assessed as incorporation of [3H]hypoxanthine after 48 hrs by scintillation counter.
Assay [7] concerns Plasmodium falciparum. The assay can be described thus: Antimalarial activity against Plasmodium falciparum IMT 10500 harboring Pfcrt Q271E mutant gene and Ppcrt I371R mutant gene and Pfnhe-1 ms4760 microsatellite mutant assessed as incorporation of [3H]hypoxanthine after 48 hrs by scintillation counter.
The subject of assay [8] is Plasmodium falciparum. The assay can be described thus: Antimalarial activity against Plasmodium falciparum IMT 16332 harboring Ppcrt M74I, N75E, K76T, A220S, Q271E mutant gene, Pmdr1 N86Y mutant gene assessed as incorporation of [3H]hypoxanthine after 48 hrs by scintillation counter.
The test system of assay [9] is Plasmodium falciparum. Nature of the assay: Antimalarial activity against Plasmodium falciparum IMT K4 harboring Ppcrt M74I, N75E, K76T, A220S, Q271E, N326S mutant gene, Pmdr1 S1034C, N1042D mutant gene and Pfmrp H191Y and S437A mutant gene assessed as incorporation of [3H]hypoxanthine after 48 hrs by scintillation counter.
In assay [10] the test system is Plasmodium falciparum. The assay can be described thus: Antimalarial activity against Plasmodium falciparum IMT Vol harboring Ppcrt M74I, N75E, K76T, A220S, Q271E, N326S mutant gene, Pmdr1 N86Y mutant gene and Pfmrp H191Y and S437A mutant gene assessed as incorporation of [3H] hypoxanthine after 48 hrs by scintillation counter.

The IC50 is the concentration at which inhibition is half-maximal. Turning to `CC(C)c1c(C(=O)Nc2ccccc2)c(-c2ccccc2)c(-c2ccc(F)cc2)n1CC[C@@H](O)C[C@@H](O)CC(=O)O` [ATORVASTATIN], the IC50 with Plasmodium falciparum [1] was determined as 2.5 µM; with Plasmodium falciparum [2], 2.5 µM; in the assay with Plasmodium falciparum [3], 2.5 µM; in the assay with Plasmodium falciparum [4], 2.5 µM; in the assay with Plasmodium falciparum [5] it was 5.9 µM; in the assay with Plasmodium falciparum [6] it was 7.3 µM. Further, the IC50 was determined as 6.7 µM in the assay on Plasmodium falciparum [7], 6 µM with Plasmodium falciparum [8], 6.9 µM with Plasmodium falciparum [9] and 7.6 µM with Plasmodium falciparum [10].
